# From PMC5399447, “Neuroprotective pentapeptide CN-105 is associated with reduced sterile inflammation and improved functional outcomes in a traumatic brain injury murine model” (Scientific Reports, 2017)
# Key:
# [1] = tested on: murine model of intracranial hemorrhage; conditions: cited from earlier work
# Description: The possibility that the apoE mimetic peptide modifies sterile inflammation in the central nervous system is particularly relevant after traumatic brain injury, where glial activation and neuroinflammatory responses exacerbate secondary tissue injury. […] For example, there are a number of limitations inherent to all rodent models of traumatic brain injury. This includes the lissencephalic nature of rodent brains, which precludes testing of higher and more subtle cortical functions that are directly applicable to the clinical setting. Moreoever, rodent brains have reduced ratio of white: grey matter as compared to primates, and thus are not ideal to model the diffuse axonal injury that may occur in the clinical s ...
# [2] = tested on: degenerating neurons in dentate gyrus of TBI mice; experiment: Fluoro-Jade B staining of degenerating neurons; assay type: in vivo, mouse; conditions: 0.05 mg/kg, 24 hours post-injury, 6 vehicle and 6 CN-105 mice, p < 0.00001
# Experimental: To assess the effects of CN-105 on inflammation, neuronal injury and neuronal loss, immunohistochemical(IHC) staining was performed using the F4/80 antibody(a marker for mature microglia and macrophages; rat monoclonal, 1:10,000; Serotec, Raleigh, NC) and the Fluoro-Jade B stain(a marker of degenerating neurons; Histo-Chem Inc. Jefferson, AR) on days 10 and 1, respectively, after TBI. IHC was performed on separate cohorts of mice from those used in neurobehavioral tests. As previously described, mice were anesthetized, euthanized, and perfused with 30 ml phosphate-buffered saline(PBS) via transcardiac puncture. The brains were then immersed in buffered formalin overnight and saturated with 30% sucrose in buffer. Sagittal sections(40 μm) were sliced on a freezing microtome and collected in cryoprotectant solution. […]
# For Fluoro-Jade B, brain sections from 12 TBI mice(6 vehicle and 6 CN-105) containing the dorsal hippocampus(5–6 sections per animal) were examined for degenerating neurons using an epifluorescence microscope(Nikon, Tokyo, Japan) with a medium band blue excitation(Nikon B-2A, 450–490 nm) filter set. […] Degenerating neurons were counted and the total number of Fluoro-Jade B-positive neurons per every eighth brain slice was recorded. […]
# [3] = tested on: murine closed head injury model (TBI); experiment: Morris Water Maze after closed head injury; assay type: in vivo, mouse
# Description: The murine closed head injury model used in this study was previously described. The closed head impact results in injury to selectively vulnerable neurons in cortex and hippocampus, and is associated with vestibulomotor deficits and long term neurocognitive deficits. Although animals do lose body weight, they rapidly regain spontaneous ventilation, righting reflex, and the ability to ambulate. Briefly, 12–14 week-old C57Bl/6 J male mice(Jackson Laboratories, Bar Harbor, ME) were used. The trachea was intubated after anesthesia induction with 4.6% isoflurane and the lungs were mechanically ventilated with 1.6% isoflurane in 30% O2/70% N2. Core body temperature was maintained at 37 °C through a rectal probe. To avoid basilar skull fracture, ear bars are not used. The animal was secured in a stereotactic device in a prone position on a molded acrylic cast with surgical tape across the shoulders. The intubation tube was also secured to the acrylic cast with tape. The acrylic cast is designed to allow the mouse to have 3 mm of space below the head to allow for acceleration/decelaration of the head in this position. The head was shaved and the scalp was incised to expose the skull and identify anatomical landmarks. A concave 3-mm metallic disc was adhered to the skull immediately caudal to bregma. A 2.0-mm diameter pneumatic impactor(Air-Power Inc., High Point, NC) was used to deliver a single midline impact to the center of the disc surface. The impactor was discharged at 6.8 ± 0.2 m/second with a head displacement of 3 mm. After impact, the animals were allowed to recover spontaneous ventilation and then the tracheas were extubated. Mice were allowed free access to food and water. Sham mice were treated identically except for the absence of impact. All mice were housed in the same facility.
# (§1) CN-105(Ac-VSRRR-amide) was synthesized by Polypeptide Inc.(San Diego, CA) to a purity of >99%, and was delivered in sterile normal saline. Animals were placed in a restrainer(Harvard Apparatus, Holliston, MA), and a single intravenous dose of drug(0.05 mg/kg) was administered by tail vein in a volume of 100 μL. Vehicle treated animals received intravenous injection of 100 μL of normal saline at the same time points. Animals were assigned to treatment group by a coded study identification number after injury using a paper randomization protocol. A block randomization scheme was used, so that an equal number of animals were randomized to each of the treatment groups during concurrent experiments.
# As described previously the Morris Water Maze assesses spatial learning and memory by testing the ability of mice to locate a submerged platform. The mice were placed in a pool(105 cm diameter) filled with room temperature(25 °C) water made opaque with fat free powdered milk and allowed up to 90 seconds to locate the submerged platform. The mice performed four trials/day for 4 consecutive days(inter-trial interval = 30 min). The mice were introduced in varying quadrants of the pool for each trial but the location of the platform never varied. The latency to locate the platform was recorded, and the 4 trials per day were averaged. Mice were tested on days 28–31 post-injury(n = 11–12 mice per group). A probe trial was administered on day 4 of the experiment 3 hours after the last test trial was completed. For the probe trial, the platform was removed and the mice were allowed to swim freely for 60 seconds. The percent of the time the mice spent in the platform quadrant was quantified.
# TBI mice = experiment: Tolerability after injury; assay type: in vivo, mouse; conditions: treatment after injury
# Experimental: as §1
substance,measurement,setting,value
Ac-VSRRR-amide [CN-105],functional outcome,[1]; model of intracranial hemorrhage,improves functional outcome
same,cerebral edema,[1]; murine model of intracranial hemorrhage,reduces cerebral edema
same,"number of Fluoro-Jade B positive neurons, dorsal hippocampus, compared to vehicle",[2],significant decrease in the number of Fluoro-Jade B positive neurons
same,Morris Water Maze latency to platform compared to vehicle,"[3]; 0.05 mg/kg iv 2 h after TBI, days 28-31, p = 0.036",significantly reduced time to escape to the platform
same,Morris Water Maze probe trial compared to vehicle,"[3]; 0.05 mg/kg iv 2 h after TBI, p = 0.0079",performed better on the probe trial
same,Morris Water Maze swim speed compared to vehicle,"[3]; 0.05 mg/kg iv 2 h after TBI, p = 0.4968",no difference in swim speed
same,Morris Water Maze neurocognitive performance compared to vehicle,[3]; 0.05 mg/kg iv 4 hours post-injury,reduced deficit on Morris Water Maze testing
same,Morris Water Maze probe trial compared to vehicle,"[3]; 0.05 mg/kg iv 4 hours post-injury, p = 0.0211",performed better on the probe trial
same,Morris Water Maze swim speed compared to vehicle,"[3]; 0.05 mg/kg iv 4 hours post-injury, p = 0.0567",no significant difference in swim speed
same,tolerability,TBI mice,well tolerated
